Data from paper PMC12892976, “Alkylation-based optimization of antifungal FPPS inhibitors yields a potent, broad-spectrum lipophilic zoledronate derivative” (mBio, 2025).
≈ marks a conversion by molar mass, not a printed value. Where two headings read alike, the source gives them in different places.

How the values were obtained:
Cryptococcus neoformans [1] = assay: MIC/MFC broth microdilution (CLSI); details: Cryptococcus neoformans;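 also: susceptibility testing followed the CLSI M27-Ed4 broth microdilution document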
Experimental: (§1) Antifungal susceptibility was determined by broth microdilution according to the CLSI guidelines described in M27-Ed4 ([16]). […] MFC was determined by back-plating drug-treated cultures from MIC broths onto SDA plates. The MFC was defined as the lowest concentration from which no colonies could be cultured.

eight fungal species [2] = assay: checkerboard interaction with azoles, summary across the eight species; format: cell-based
From the text: Synergy between lipophilic FPPS inhibitors and azole antifungals was investigated by determining the fractional inhibitory concentration index (FICI) (Fig. 2; Table S1 Fig. S1) ([17]). […]. Derivatives PLA9 and 11, and PDA9, 11, and 12 antagonized azoles in C. albicans, C. neoformans, and C. deuterogattii, yet were largely synergistic in C. glabrata and S. cerevisiae. […].

Aspergillus flavus [3] = assay: checkerboard drug interaction (FICI, MICc);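 also: simplified diagonal checkerboard screen pairing azole antifungals with FPPS inhibitors, FICI calculated under the Loewe additivity model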; format: cell-based; design: INH MICc (KET:INH) / INH MICc (FLC:INH): unit not given beside the values; details: A. flavus
Aspergillus fumigatus [4] = assay: checkerboard drug interaction (FICI, MICc); format: cell-based;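 also: simplified diagonal checkerboard screen pairing antifungals with FPPS inhibitors against Aspergillus fumigatus, with FICI calculated under the Loewe additivity model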
Experimental: (§2) Drug interactions between antifungals and FPPS inhibitors were investigated using a simplified checkerboard diagonal screening method ([45]). […] FICIs were determined according to the Loewe additivity model ([17]).

Trichophyton rubrum [5] = assay: checkerboard drug interaction (FICI, MICc);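 also: simplified diagonal checkerboard screen pairing azole antifungals with FPPS inhibitors, FICI calculated under the Loewe additivity model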; format: cell-based; details: T. rubrum
Experimental: as §2

Candida albicans [6] = assay: checkerboard drug interaction (FICI, MICc);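 as to all read-outs here: antifungal plus FPPS inhibitor combinations on Candida albicans tested by a simplified diagonal checkerboard screen, with FICI calculated under the Loewe additivity model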; format: cell-based; details: C. albicans; for INH FD (MIC-MICc fold decrease): fold decrease of inhibitor MIC
Experimental: as §2

[7] = tested on: Cryptococcus deuterogattii; assay: MIC/MFC broth microdilution (CLSI); details: Cryptococcus deuterogattii;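 also: broth microdilution per CLSI M27-Ed4. MFC is the lowest concentration yielding no colonies when MIC broths are subcultured onto SDA plates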
Experimental: as §1

Saccharomyces cerevisiae [8] = assay: checkerboard drug interaction (FICI, MICc); format: cell-based; design: INH MICc / INH MICc (ITR:INH) / INH MICc (KET:INH) / INH MICc (FLC:INH): unit not given beside the values;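 also: simplified diagonal checkerboard screen pairing antifungals with FPPS inhibitors, FICI calculated under the Loewe additivity model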
[9] = tested on: Cryptococcus deuterogattii; assay: checkerboard drug interaction (FICI, MICc);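 as to all read-outs here: simplified diagonal checkerboard screen pairing antifungal drugs with FPPS inhibitors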; format: cell-based; details: C. deuterogattii; for INH FD (MIC-MICc fold decrease): fold decrease of inhibitor MIC
Experimental: as §2

Candida albicans [10] = assay: MIC/MFC broth microdilution (CLSI); format: cell-based; details: Candida albicans SC5314
Experimental: as §1

Aspergillus fumigatus [11] = assay: MIC/MFC broth microdilution (CLSI); details: ATCC204305
Experimental: as §1

Candida glabrata [12] = assay: checkerboard drug interaction (FICI, MICc);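 as to all read-outs here: simplified diagonal checkerboard screen pairing antifungals with FPPS inhibitors, FICI calculated under the Loewe additivity model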; format: cell-based; details: C. glabrata; for INH FD (MIC-MICc fold decrease): fold decrease of inhibitor MIC
Experimental: as §2

Aspergillus flavus [13] = assay: MIC/MFC broth microdilution (CLSI); details: ATCC204304
Experimental: as §1

Trichophyton rubrum [14] = assay: MIC/MFC broth microdilution (CLSI); details: Trichophyton rubrum
Experimental: as §1

eight fungal species [15] = assay: MIC/MFC summary across the eight fungal species of Table 1; format: cell-based
Experimental: The antifungal activity of these compounds was evaluated according to CLSI guidelines ([16]).

Cryptococcus neoformans [16] = assay: checkerboard drug interaction (FICI, MICc);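 as to all read-outs here: antifungal plus FPPS inhibitor pairs tested against Cryptococcus neoformans by simplified diagonal checkerboard screening, FICI computed under the Loewe additivity model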; format: cell-based; details: C. neoformans; for INH FD (MIC-MICc fold decrease): fold decrease of inhibitor MIC
Experimental: as §2

HEK-293T cells = assay: MTT reduction cytotoxicity assay; format: cell-based; details: Homo sapiens, HEK-293T, 72 h, MTT, 72 h
Saccharomyces cerevisiae [17] = assay: MIC/MFC broth microdilution (CLSI); format: cell-based; details: Saccharomyces cerevisiae S288c
Experimental: as §1

Candida glabrata [18] = assay: MIC/MFC broth microdilution (CLSI); details: Nakaseomyces glabratus, CBS138;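 also: broth microdilution following CLSI M27-Ed4, MFC taken as the lowest drug level yielding no growth once MIC wells were subcultured on SDA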
Experimental: as §1

[19] = Fractional Inhibitory Concentration Index, fluconazole + inhibitor
[20] = Fractional Inhibitory Concentration Index, itraconazole + inhibitor
[21] = Fractional Inhibitory Concentration Index, ketoconazole + inhibitor
[22] = MIC of the inhibitor in combination with fluconazole
[23] = MIC of the inhibitor in combination with itraconazole
[24] = MIC of the inhibitor in combination with ketoconazole
[25] = MIC-MICc fold decrease of fluconazole, negative = increase
[26] = MIC-MICc fold decrease of itraconazole, negative = increase
[27] = MIC-MICc fold decrease of ketoconazole, negative = increase
[28] = MIC-MICc fold decrease of the inhibitor, with fluconazole
[29] = MIC-MICc fold decrease of the inhibitor, with itraconazole
[30] = MIC-MICc fold decrease of the inhibitor, with ketoconazole
[31] = FLC:INH combination, MIC of the inhibitor in combination with FLC
[32] = FLC:INH combination, fold decrease of FLC MIC
[33] = ITR:INH combination, MIC of the inhibitor in combination with ITR
[34] = ITR:INH combination, fold decrease of ITR MIC
[35] = KET:INH combination, MIC of the inhibitor in combination with KET
[36] = KET:INH combination, fold decrease of KET MIC

## CCCCCCCCCCCN1CCC[C@H]1C(=O)N[C@@H](CC(=O)OC)C(=O)OC [dmPLA11]
Cryptococcus neoformans [1]
  MFC: 64 µg/mL (≈ 155 µM)
  MIC: 16 µg/mL (≈ 38.8 µM)
Eight fungal species [2]; any of the azole drugs in any species tested
  antagonism with azole drugs: no antagonism
Eight fungal species [2]; geometric mean MIC in combination with azoles
  GM fungal MICc: 18
Aspergillus flavus [3]; [19]
  FICI (FLC:INH): 2
Aspergillus flavus [3]; [20]
  FICI (ITR:INH): 1.25
Aspergillus flavus [3]; [21]
  FICI (KET:INH): 0.75
Aspergillus flavus [3]; [22]
  INH MICc (FLC:INH): 256
Aspergillus flavus [3]; [23]
  INH MICc (ITR:INH): 64
Aspergillus flavus [3]; [24]
  INH MICc (KET:INH): 64
Aspergillus flavus [3]; [25]
  FLC FD (FLC:INH): 1
Aspergillus flavus [3]; [26]
  ITR FD (ITR:INH): 1
Aspergillus flavus [3]; [27]
  KET FD (KET:INH): 2
Aspergillus flavus [3]; [28]
  INH FD (FLC:INH): 1
Aspergillus flavus [3]; [29]
  INH FD (ITR:INH): 4
Aspergillus flavus [3]; [30]
  INH FD (KET:INH): 4
Aspergillus fumigatus [4]; [19]
  FICI (FLC:INH): 1.25
Aspergillus fumigatus [4]; [20]
  FICI (ITR:INH): 0.53
Aspergillus fumigatus [4]; [21]
  FICI (KET:INH): 1.5
Aspergillus fumigatus [4]; [22]
  INH MICc (FLC:INH): 64
Aspergillus fumigatus [4]; [23]
  INH MICc (ITR:INH): 2
Aspergillus fumigatus [4]; [24]
  INH MICc (KET:INH): 64
Aspergillus fumigatus [4]; [25]
  FLC FD (FLC:INH): 4
Aspergillus fumigatus [4]; [26]
  ITR FD (ITR:INH): 2
Aspergillus fumigatus [4]; [27]
  KET FD (KET:INH): 2
Aspergillus fumigatus [4]; [28]
  INH FD (FLC:INH): 1
Aspergillus fumigatus [4]; [29]
  INH FD (ITR:INH): 32
Aspergillus fumigatus [4]; [30]
  INH FD (KET:INH): 1
Trichophyton rubrum [5]; [19]
  FICI (FLC:INH): 2.25
Trichophyton rubrum [5]; [20]
  FICI (ITR:INH): 2.13
Trichophyton rubrum [5]; [21]
  FICI (KET:INH): 2.25
Trichophyton rubrum [5]; [22]
  INH MICc (FLC:INH): 32
Trichophyton rubrum [5]; [23]
  INH MICc (ITR:INH): 32
Trichophyton rubrum [5]; [24]
  INH MICc (KET:INH): 32
Trichophyton rubrum [5]; [25]
  FLC FD (FLC:INH): 4
Trichophyton rubrum [5]; [26]
  ITR FD (ITR:INH): 8
Trichophyton rubrum [5]; [27]
  KET FD (KET:INH): 4
Trichophyton rubrum [5]; [28]
  INH FD (FLC:INH): -2
Trichophyton rubrum [5]; [29]
  INH FD (ITR:INH): -2
Trichophyton rubrum [5]; [30]
  INH FD (KET:INH): -2
Candida albicans [6]; FLC:INH combination
  FICI: 1.25
  INH FD (MIC-MICc fold decrease): 4
Candida albicans [6]; [31]
  INH MICc: 8
Candida albicans [6]; [32]
  FLC FD (MIC-MICc fold decrease): 1
Candida albicans [6]; ITR:INH combination
  FICI: 1.25
  INH FD (MIC-MICc fold decrease): 4
Candida albicans [6]; [33]
  INH MICc: 8
Candida albicans [6]; [34]
  ITR FD (MIC-MICc fold decrease): 1
Candida albicans [6]; KET:INH combination
  FICI: 1.25
  INH FD (MIC-MICc fold decrease): 4
Candida albicans [6]; [35]
  INH MICc: 8
Candida albicans [6]; [36]
  KET FD (MIC-MICc fold decrease): 1
[7]
  MFC: 128 µg/mL (≈ 310 µM)
  MIC: 8 µg/mL (≈ 19.4 µM)
Saccharomyces cerevisiae [8]; [19]
  FICI (FLC:INH): 1
Saccharomyces cerevisiae [8]; [20]
  FICI (ITR:INH): 2.25
Saccharomyces cerevisiae [8]; [21]
  FICI (KET:INH): 1
Saccharomyces cerevisiae [8]; [22]
  INH MICc (FLC:INH): 4
Saccharomyces cerevisiae [8]; [23]
  INH MICc (ITR:INH): 2
Saccharomyces cerevisiae [8]; [24]
  INH MICc (KET:INH): 4
Saccharomyces cerevisiae [8]; [25]
  FLC FD (FLC:INH): 2
Saccharomyces cerevisiae [8]; [26]
  ITR FD (ITR:INH): -2
Saccharomyces cerevisiae [8]; [27]
  KET FD (KET:INH): 2
Saccharomyces cerevisiae [8]; [28]
  INH FD (FLC:INH): 2
Saccharomyces cerevisiae [8]; [29]
  INH FD (ITR:INH): 4
Saccharomyces cerevisiae [8]; [30]
  INH FD (KET:INH): 2
[9]; FLC:INH combination
  FICI: 1.5
  INH FD (MIC-MICc fold decrease): 1
[9]; [31]
  INH MICc: 32
[9]; [32]
  FLC FD (MIC-MICc fold decrease): 2
[9]; ITR:INH combination
  FICI: 2
  INH FD (MIC-MICc fold decrease): 1
[9]; [33]
  INH MICc: 32
[9]; [34]
  ITR FD (MIC-MICc fold decrease): 1
[9]; KET:INH combination
  FICI: 1.13
  INH FD (MIC-MICc fold decrease): 1
[9]; [35]
  INH MICc: 32
[9]; [36]
  KET FD (MIC-MICc fold decrease): 8
Candida albicans [10]
  MFC: 32 µg/mL (≈ 77.6 µM)
  MIC: 32 µg/mL (≈ 77.6 µM)
Aspergillus fumigatus [11]
  MFC: > 128 µg/mL
  MIC: 128 µg/mL (≈ 310 µM)
Candida glabrata [12]; FLC:INH combination
  FICI: 3
  INH FD (MIC-MICc fold decrease): 1
Candida glabrata [12]; [31]
  INH MICc: 16
Candida glabrata [12]; [32]
  FLC FD (MIC-MICc fold decrease): 1
Candida glabrata [12]; ITR:INH combination
  FICI: 1
  INH FD (MIC-MICc fold decrease): 4
Candida glabrata [12]; [33]
  INH MICc: 4
Candida glabrata [12]; [34]
  ITR FD (MIC-MICc fold decrease): 2
Candida glabrata [12]; KET:INH combination
  FICI: 1
  INH FD (MIC-MICc fold decrease): 4
Candida glabrata [12]; [35]
  INH MICc: 4
Candida glabrata [12]; [36]
  KET FD (MIC-MICc fold decrease): 2
Aspergillus flavus [13]
  MFC: > 128 µg/mL
  MIC: > 128 µg/mL
Trichophyton rubrum [14]
  MFC: > 128 µg/mL
  MIC: 16 µg/mL (≈ 38.8 µM)
Eight fungal species [15]; across eight species, read-out: Geometric mean MFC
  MFC: 83 µg/mL (≈ 201 µM)
Eight fungal species [15]; geometric mean across eight species, read-out: GM fungal MIC
  MIC: 29.3 µg/mL (≈ 71 µM)
Eight fungal species [15]; read-out: Geometric mean MIC
  MIC: 29.3 µg/mL (≈ 71 µM)
Cryptococcus neoformans [16]; FLC:INH combination
  FICI: 1.5
  INH FD (MIC-MICc fold decrease): 2
Cryptococcus neoformans [16]; [31]
  INH MICc: 32
Cryptococcus neoformans [16]; [32]
  FLC FD (MIC-MICc fold decrease): 1
Cryptococcus neoformans [16]; ITR:INH combination
  FICI: 1.5
  INH FD (MIC-MICc fold decrease): 2
Cryptococcus neoformans [16]; [33]
  INH MICc: 32
Cryptococcus neoformans [16]; [34]
  ITR FD (MIC-MICc fold decrease): 1
Cryptococcus neoformans [16]; KET:INH combination
  FICI: 1.5
  INH FD (MIC-MICc fold decrease): 2
Cryptococcus neoformans [16]; [35]
  INH MICc: 32
Cryptococcus neoformans [16]; [36]
  KET FD (MIC-MICc fold decrease): 1
HEK-293T cells; HEK-293T cells, read-out: IC50
  IC50: 9.09 µg/mL (≈ 22 µM)
HEK-293T cells; read-out: HEK IC50
  IC50: 9.09 µg/mL (≈ 22 µM)
Saccharomyces cerevisiae [17]
  MFC: 8 µg/mL (≈ 19.4 µM)
  MIC: 8 µg/mL (≈ 19.4 µM)
Candida glabrata [18]
  MFC: 64 µg/mL (≈ 155 µM)
  MIC: 32 µg/mL (≈ 77.6 µM)
